Measurements reported in publication PMC4666032, “KPT-330, a potent and selective exportin-1 (XPO-1) inhibitor, shows antitumor effects modulating the expression of cyclin D1 and survivin in prostate cancer models” (BMC Cancer, 2015).

System: models of aggressive PCa
Experiment: In vivo models of aggressive PCa (xenograft not specified)
Design: species or system mice
Description: Male CD1 nude mice (Charles River, Milan, Italy) were maintained under the guidelines established by the University of L’Aquila, Medical School and Science and Technology School Board Regulations. Experiments on animals have been approved by your local IRB in compliance with the Italian government regulation n.116 January 27, 1992 for the use of laboratory animals which is line with ARRIVE guidelines. All mice received subcutaneous flank injections of 1 x 10^6 PC3, DU145 or 22v1 cells. Tumor growth was measured bi-weekly with a Vernier caliper (length x width). Tumor weight was calculated according to the formula: TW (mg) = tumor volume (mm^3) = d2 x D/2, where d and D are the shortest and longest diameters, respectively. The effects of the treatments were examined as previously described. […]
Mice were treated by oral gavage with either vehicle control (Pluronic F-68/PVP-K29/32), KPT330 or KPT251. […] In vivo, combinational studies were evaluated by CalcuSyn (Biosoft). For the calculation of CI, the values of cell kill for a fixed tumor volume were considered (determined by the log cell kill (LCK)). LCK was determined as LCKZ (TKC)/(3.3KTd), where Td represents the mean control group doubling time required to reach a fixed tumor volume, expressed in days, whereas T and C are the same values as described above.

O=C(/C=C\n1cnc(-c2cc(C(F)(F)F)cc(C(F)(F)F)c2)n1)NNc1cnccn1 [KPT-330]
antitumor effects compared to KPT-251 (at similar dosage): better antitumor effects
tumor volume relative to docetaxel-treated animals (internal control docetaxel, data not shown): approximately one-third
